The record followed here is ChEMBL document CHEMBL1152093, “The effect of propargylic substitution on the activation and aromatization of enediynes” (Bioorg Med Chem Lett, 1994).

pIC50: −log10 of the molar value. Some results are limits rather than exact numbers.

Experiment [1] relates to HCT-116. Nature of the experiment: In vitro cytotoxicity against 116 human colon tumor cell line (HCT116). Format: functional, cell-based.
Experiment [2] concerns Mus musculus. Nature of the experiment: Compound was tested in vivo in mice against Madison 109 lung carcinoma cell line (M109) in a pretreated group over a control group at 16 mg/kg/inj. The format is functional.
Experiment [3] deals with Mus musculus. Nature of the experiment: Compound was tested in vivo in mice against Madison 109 lung carcinoma cell line (M109) in a pretreated group over a control group at 32 mg/kg/inj. The format is functional.
In experiment [4] the test system is Mus musculus. Nature of the experiment: Compound was tested in vivo in mice against Madison 109 lung carcinoma cell line (M109) in a pretreated group over a control group at 128 mg/kg/inj. Format: functional.
In experiment [5] the test system is Mus musculus. Nature of the experiment: Compound was tested in vivo in mice against Madison 109 lung carcinoma cell line (M109) in a pretreated group over a control group at 64 mg/kg/inj. The format is functional.

With `CC(C)(C)[Si](C)(C)O[C@@]12C#C/C=C\C#C[C@@H](O)C(=CCC1)C2=O`, the pIC50 (in general, −log10 of the IC50, conventionally taken in molar units) in experiment [1] was 7.00. The T/C (usually the result in the treated group divided by that in the control group, in per cent) in experiment [2] amounted to 144%.
Consider `CC(C)(C)[Si](C)(C)O[C@@]12C#C/C=C\C#C[C@@H](F)C(=CCC1)C2=O`, for which the pIC50 in experiment [1] is 7.62. In addition, in experiment [3], the T/C was determined as 112%.
The molecule `CC(C)(C)[Si](C)(C)O[C@@]12C#C/C=C\C#C[C@H](O)C(=CCC1)C2=O` gave a negative-log IC50 (pIC50) in experiment [1] of less than 5.70. The T/C in experiment [4] was 115%.
As for `CC(C)(C)[Si](C)(C)O[C@@]12C#C/C=C\C#CCC(=CCC1)C2=O`, in experiment [1], the negative logarithm of the IC50 (pIC50) is less than 5.70.
For `CC(C)(C)[Si](C)(C)O[C@@]12C#C/C=C\C#C[C@@H](OC(=O)COc3ccccc3)C(=CCC1)C2=O`, the pIC50 in experiment [1] is 6.72. Also, the T/C in experiment [5] turned out to be 143%.
